According to the COVID Moonshot data (paper PMC7615835):
pIC50: −log10 of the molar value. Where “and” joins values, the source holds several entries; their conditions need not be identical. Equal entries are not always repeated.

Molecular target: SARS-CoV-2 Main Protease (SARS-CoV-2) (UniProt P0DTD1)

Compound	pIC50
CC1(C)Cc2cccc(OCCNC(=O)c3cc(=O)[nH]c4cc(F)ccc34)c2O1	< 4.00
O=C1N(c2cncc3ccccc23)CCC12CN(Cc1nncs1)Cc1ccc(Cl)cc12 (stereo not drawn)	6.58
O=c1[nH]c(Cc2cccc(C(F)(F)F)c2)nc2cnccc12	< 4.00
Cc1cc(C)[n+](C)c(C#N)n1	< 4.00
O=C(Cc1cc(Cl)cc(Nc2cc(Cl)nc(Cl)n2)c1)Nc1cncc2ccccc12	5.74
O=C(NCCc1cccc(F)c1)C(c1cccnc1)N(Cc1c(O)ccc2c1CCCC2)C(=O)c1ccco1 (stereo not drawn)	4.92
C=CC(=O)N(c1ccc(C(C)(C)C)cc1)C(C(=O)NC)c1cccnc1 (stereo not drawn)	4.45
O=C(CCl)N1CCCN(S(=O)(=O)c2c(F)cccc2F)CC1	4.69
O=C(Nc1cncc2c1CCCC2)[C@H]1CNS(=O)(=O)c2ccc(Cl)cc21 (stereo in doubt)	6.14
O=C(CN1CC2(CCN(c3cncc4ccccc34)C2=O)c2cc(Cl)ccc2S1(=O)=O)NCC1CC1 (stereo not drawn)	6.69
C=CC(=O)N(c1ccc(C(C)(C)C)cc1)C(C(=O)NCCc1cccc(F)c1)c1cccnc1 (stereo not drawn)	5.53
O=C(NNc1cc(O)nc2ncccc12)c1ccnc2ccccc12	< 4.00
CC(C(=O)Nc1cncnc1)c1ccccc1 (stereo not drawn)	< 4.00
Cc1ccncc1N(CC#N)C(=O)Cc1cccc(Cl)c1	< 4.00
C=CC(=O)N(c1ccc(C(C)(C)C)cc1)C(C(=O)NCCc1cccc(F)c1)c1cncc(C)c1 (stereo not drawn)	4.94
COC1(C(=O)Nc2cncc3ccncc23)CCOc2ccc(Cl)cc21 (stereo not drawn)	6.08
CC1CN(C(=O)c2cc(=O)[nH]c3ccccc23)CCN1c1cccc(Cl)c1 (stereo not drawn)	4.83
O=C(Nc1cncc2ccccc12)C12CCC(O1)c1ccc(Cl)cc12 (stereo not drawn)	4.95
C=CC(=O)N(c1ccc(C(F)(F)F)cc1)C(C(=O)Nc1c(C)cccc1CC)c1cccnc1 (stereo not drawn)	4.01
C=CC(=O)NCCC(=O)N(Cc1ccccc1)Cc1nc2ccccc2c(=O)[nH]1	< 4.00
O=C(CC1(C(=O)Nc2cncc3ccccc23)CCOc2ccc(Cl)cc21)N1C[C@@H]2C[C@H]1CN2CC(F)F (stereo in doubt)	5.42
O=CC(=O)N1CCN(Cc2cccc(Cl)c2)CC1	4.25 and 4.30
O=C(NCCc1cccc(F)c1)C(c1cccnc1)N(C(=O)c1cocn1)c1ccc2ncsc2c1 (stereo not drawn)	4.22
O=C(Nc1cncc2ccccc12)C1CCOc2c1ccc(Cl)c2Cl (stereo not drawn)	5.48

Compound	pIC50
Cc1ccncc1NC(=O)CCc1cccc(Cl)c1	< 4.00
CN1C(=O)CCc2cc(N(C(=O)c3cocn3)C(C(=O)NCCc3cccc(F)c3)c3cccnc3)ccc21 (stereo not drawn)	4.20
C#CCCCC(=O)N[C@H](C(=O)N[C@H](CC(C)C)C(=O)NN(CCC(N)=O)C(=O)/C=C/C(=O)OC)C(C)(C)C (stereo in doubt)	> 7.30 and 7.36
COc1cc(N(C(=O)c2cocn2)C(C(=O)NCCc2cccc(F)c2)c2cccnc2)ccc1S(=O)(=O)N(C)C (stereo not drawn)	< 4.00
Clc1ccc2c(c1)C1(CCO2)CCN(c2cncc3cccc(Cl)c23)C1 (stereo not drawn)	< 4.00
O=C(Nn1nnc2ccccc21)C(Cc1cccc(Cl)c1)c1ccc(N2CCCCC2=O)cc1 (stereo not drawn)	4.29
O=C1NCC(C(=O)Nc2cnn3ccccc23)c2cc(Cl)ccc21 (stereo not drawn)	5.15
O=C(CN1CC(C(=O)Nc2cncc3cc(F)ccc23)c2cc(Cl)ccc2C1=O)NCC(F)(F)F (stereo not drawn)	6.06
Cn1cnc(C(=O)N(c2ccc(C(C)(C)C)cc2)C(C(=O)NCCc2cccc(F)c2)c2cccnc2)n1 (stereo not drawn)	4.13
O=CN1CCC(OC(=O)c2c[nH]nc2-c2ccc(Cl)cc2)CC1	< 4.00
O=C(Cc1cccc(Cl)c1)NC1=NC(=O)c2ccccc21	< 4.00
O=C1NCC(C(=O)Nc2cnn3c2CCCC3)c2cc(Cl)ccc21 (stereo not drawn)	4.52
CC(C)(C)c1ccc(N(C(=O)c2cn(C3COCC3=O)nn2)C(C(=O)NCCc2cccc(F)c2)c2cccnc2)cc1 (stereo not drawn)	4.71
O=C(Cc1cccc(Cl)c1)Nc1nnn[nH]1	4.34
CNC(=O)CN1CC(C)(C(=O)Nc2cncc3cc(Cl)ccc23)c2cc(Cl)ccc2S1(=O)=O (stereo not drawn)	6.41
O=C(Cc1cc(Cl)cc(Nc2ccc(Br)c3ccccc23)c1)Nc1cncc2ccccc12	5.70
CC(C)(C)c1ccc(N(C(=O)c2cocn2)C(C(=O)NCCc2cccc(F)c2)c2cnc(N3CCOCC3)nc2)cc1 (stereo not drawn)	< 4.00
N#CC1(CS(=O)(=O)N2Cc3ccc(Cl)cc3C3(CCN(c4cncc5ccc(OCCN6CCOCC6)cc45)C3=O)C2)CC1 (stereo not drawn)	6.73
COC1(CS(=O)(=O)N2Cc3ccc(Cl)cc3C3(CCN(c4cncc5cc(S(C)(=O)=O)ccc45)C3=O)C2)CC1 (stereo not drawn)	6.38
CC(C)(C)c1ccc(N(C(=O)c2cocn2)C(C(=O)NCC(=O)OCc2ccccc2)c2cccnc2)cc1 (stereo not drawn)	5.00
NC(=O)C1Cc2ccccc2CN1CC(=O)N1CCN(c2ncccn2)CC1 (stereo not drawn)	< 4.00
O=C(NNC(=O)c1cccc(-n2nccc2C(F)(F)F)c1)OCc1ccccc1	< 4.00
COc1ccc(N(Cc2ccccc2)C(=O)Cc2c[nH]c3ccccc23)cc1	< 4.00
CN1C(=O)c2ccc(Nc3cc(Cl)cc(CC(=O)Nc4cncc5ccccc45)c3)cc2C1=O	5.78
